Earlier results, collected in patent US20240148758A1, “CONTROLLED RELEASE FORMULATIONS OF HIGHLY LIPOPHILIC PHYSIOLOGICALLY ACTIVE SUBSTANCES” (ADD Advanced Drug Delivery Technologies Ltd., priority 2019, published 2024).

Settings: decimal logarithm of the n-octanol/water partition coefficient

SMILES: C=C(C)[C@@H]1CCC(C)=C[C@H]1c1c(O)cc(CCCCC)cc1O [Canapure PH, 2-[1R-3-methyl-6R-(1-methylethenyl)-2-cyclohexen-1-yl]-5-pentyl-1,3-benzenediol]
- log P: about 6.1
